Data: US5716953A, “1,5-benzodiazepine derivatives” (Glaxo Wellcome S.p.A., priority 1993, dated 1998)
Where a name gives a salt, the structure may show the parent alone. Read-outs that look alike come from different tables or passages of the source.

What was measured:
CCK-A receptor = CCK-A receptor binding (Pancreas Assay)
Experimental: Exp & Ther. 261, 1056-1063, 1992.
(§1) The binding affinity of the compounds of the invention for the CCK-A receptor (Pancreas Assay) and CCK-B receptor (guinea pig cortex assay) was determined using the procedure of G Dal Forno et al J. Pharmacol. Exp & Ther. 261-1056-1063.

CCK-B receptor = molecular target: T1, CCK-B receptor (Cavia porcellus, UniProt H0VZC5); assay: CCK-B receptor binding (guinea pig cortex assay)
T1 construct: CCK-B receptor (guinea pig cortex assay); from tissue; host or cells: guinea pig cortex
T1 sequence (H0VZC5 1-426): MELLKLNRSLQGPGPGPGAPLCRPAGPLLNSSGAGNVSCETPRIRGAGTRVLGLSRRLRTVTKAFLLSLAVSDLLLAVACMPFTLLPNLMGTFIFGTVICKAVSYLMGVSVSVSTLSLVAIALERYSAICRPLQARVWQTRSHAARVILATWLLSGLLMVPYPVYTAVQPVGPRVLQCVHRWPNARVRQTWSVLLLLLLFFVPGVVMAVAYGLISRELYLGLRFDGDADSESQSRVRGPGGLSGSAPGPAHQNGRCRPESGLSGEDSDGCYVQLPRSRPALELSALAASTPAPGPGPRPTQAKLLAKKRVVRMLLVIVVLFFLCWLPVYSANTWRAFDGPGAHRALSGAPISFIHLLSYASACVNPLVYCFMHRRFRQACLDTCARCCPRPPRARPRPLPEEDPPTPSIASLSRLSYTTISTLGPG
Experimental: The greater affinity of the compounds of the invention for the CCK-B receptor over the CCK-A receptor has also been established using the CCK receptor binding assays described by G Dal Forno et al., J. Pharmcol. Exp & Ther. 261, 1056-1063, 1992.
as §1, with “261-1056-1063. The pKi values determined with representative compounds of invention were as follows: […]” for “261-1056-1063.”

mice = assay: oral administration to mice, observation of untoward effects at anxiolytic doses; type: in vivo; details: orally; for untoward effects: at doses at which the compounds exhibit anxiolytic activity
Source text: (§2) The compounds of the invention are essentially non-toxic and therapeutically useful doses.

rats = assay: oral administration to rats, observation of untoward effects at anxiolytic doses; type: in vivo; details: orally
Source text: as §2

[1] = CCK-B receptor, guinea pig cortex assay, read-out: pKi CCK-B (converted)

O=C(Nc1ccccc1)NC1C(=O)N(CCN2CCOCC2)c2ccccc2N(CC23CC4CC(CC(C4)C2)C3)C1=O (single isomer, unassigned) [Example 11 (isomer 1), N-[1-(1-Adamantylmethyl)-2,4-dioxo-5-[2-(4-morpholino)ethyl]-2,3,4,5-tetrahydro-1H-benzodiazepin-3-yl]-N'-phenylurea Isomer 1]
pKi CCK-A (CCK-A receptor): 5.69 | Ki (CCK-B receptor; [1]): 0.214 nM | anxiolytic activity (mice): exhibit anxiolytic activity | untoward effects (mice): no untoward effects were observed

O=C(Nc1ccccc1)NC1C(=O)N(CCN2CCOCC2)c2ccccc2N(CC23CC4CC(CC(C4)C2)C3)C1=O (single isomer, unassigned; (-)) [Example 18, (-)[1-(1-Adamantylmethyl)-2,4-dioxo-5-[2-(4-morpholino)ethyl]-2,3,4,5-tetrahydro-1H-1,5-benzodiazepin-3-yl]-N'-phenylurea, hydrochloride salt]
anxiolytic activity (rats): exhibit anxiolytic activity | untoward effects (rats; at doses at which the compounds exhibit anxiolytic activity): no untoward effects were observed | anxiolytic activity (mice): exhibit anxiolytic activity | untoward effects (mice): no untoward effects were observed

CC(C)CCN1C(=O)C(NC(=O)Nc2ccccc2)C(=O)N(CCN2CCOCC2)c2ccccc21 (stereo not shown) [Example 1, N-[2,4-Dioxo-1-(3-methyl-1-butyl)-5-[2-(4-morpholinyl)ethyl]-2,3,4,5-tetrahydro-1H-1,5-benzodiazepin-3-yl]-N'-phenylurea]
pKi CCK-A (CCK-A receptor): 6.17 | Ki (CCK-B receptor; [1]): 2.88 nM

CC(C)CCN1C(=O)C(NC(=O)Nc2ccccc2)C(=O)N(CCN2CCCCC2)c2ccccc21 (stereo not shown) [Example 2, N-[2,4-Dioxo-1-(3-methyl-1-butyl)-5-[2-(1-piperidino)ethyl]-2,3,4,5-tetrahydro-1H-1,5-benzodiazepin-3-yl]-N'-phenylurea]
pKi CCK-A (CCK-A receptor): 5.69 | Ki (CCK-B receptor; [1]): 6.76 nM

CC(C)CCN1C(=O)C(NC(=O)Nc2ccccc2)C(=O)N(CCN(C)C)c2ccccc21 (stereo not shown) [Example 3, N-[5-[2-(Dimethylamino)ethyl]-2,4-dioxo-1-(3-methyl-1-butyl) -2,3,4,5-tetrahydro-1H-1,5-benzodiazepin-3-yl]-N'-phenylurea]
pKi CCK-A (CCK-A receptor): 5.48 | Ki (CCK-B receptor; [1]): 4.68 nM

COc1ccc(NC(=O)NC2C(=O)N(CCC(C)C)c3ccccc3N(CCN3CCOCC3)C2=O)cc1 (stereo not shown) [Example 4, N-[2,4-Dioxo-1-(3-methyl-1-butyl)-5-[2-(4-morpholino)ethyl]-2,3,4,5-tetrahydro-1H-1,5-benzodiazepin-3-yl]-N'-(4-methoxyphenyl)urea]
pKi CCK-A (CCK-A receptor): 5.29 | Ki (CCK-B receptor; [1]): 7.94 nM

CC(C)CCN1C(=O)C(NC(=O)Nc2ccc(O)cc2)C(=O)N(CCN2CCOCC2)c2ccccc21 (stereo not shown) [Example 5, N-[2,4-Dioxo-1-(3-methyl-1-butyl)-5-[2-(4-morpholinyl)ethyl]-2,3,4,5-tetrahydro-1H-1,5-benzodiazepin-3-yl]-N'-(4-hydroxyphenyl)urea]
pKi CCK-A (CCK-A receptor): 5.08 | Ki (CCK-B receptor; [1]): 7.41 nM

CCN(CC)CCN1C(=O)C(NC(=O)Nc2ccccc2)C(=O)N(CCC(C)C)c2ccccc21 (stereo not shown) [Example 6]
pKi CCK-A (CCK-A receptor): 5.39 | Ki (CCK-B receptor; [1]): 1.58 nM

CN(C)CCN1C(=O)C(NC(=O)Nc2ccccc2)C(=O)N(CC23CC4CC(CC(C4)C2)C3)c2ccccc21 (stereo not shown) [Example 7, N-[1-(1-Adamantylmethyl)-5-[2-(dimethylamino)ethyl]-2,4-dioxo-2,3,4,5-tetrahydro-1H-1,5-benzodiazepin-3-yl]-N'-phenylurea]
pKi CCK-A (CCK-A receptor): 5.49 | Ki (CCK-B receptor; [1]): 1.29 nM

CN(C)CCCN1C(=O)C(NC(=O)Nc2ccccc2)C(=O)N(CC23CC4CC(CC(C4)C2)C3)c2ccccc21 (stereo not shown) [Example 8, N-[1-(1-Adamantylmethyl)-5-[3-(dimethylamino)propyl]-2,4-dioxo-2,3,4,5-tetrahydro-1H-1,5-benzodiazepin-3-yl]-N'-phenylurea]
pKi CCK-A (CCK-A receptor): 4.69 | Ki (CCK-B receptor; [1]): 3.63 nM

O=C(Nc1ccccc1)NC1C(=O)N(CCN2CCOCC2)c2ccccc2N(CC23CC4CC(CC(C4)C2)C3)C1=O (stereo not shown) [Example 9, N-[1-(1-Adamantylmethyl)-2,4-dioxo-5-[2-(4-morpholino)ethyl]-2,3,4,5-tetrahydro-1H-benzodiazepin-3-yl]-N'-phenylurea]
pKi CCK-A (CCK-A receptor): 5.69 | Ki (CCK-B receptor; [1]): 0.575 nM

O=C(Nc1ccccc1)NC1C(=O)N(CCN2CCCC2)c2ccccc2N(CC23CC4CC(CC(C4)C2)C3)C1=O (stereo not shown) [Example 10, N-[1-(1-Adamantylmethyl)-2,4-dioxo-5-[2-(1-pyrrolidino)ethyl]-2,3,4,5-tetrahydro-1H-benzodiazepin-3-yl]-N'-phenylurea]
pKi CCK-A (CCK-A receptor): 5.02 | Ki (CCK-B receptor; [1]): 1.05 nM

N[C@@H](CO)CN1C(=O)C(NC(=O)Nc2ccccc2)C(=O)N(CC23CC4CC(CC(C4)C2)C3)c2ccccc21 (stereo partly drawn) [Example 12, N-[1-(1-Adamantylmethyl)-2,4-dioxo-5-[(3-hydroxy-2(R)amino)propyl]-2,3,4,5-tetrahydro-1H-1,5-benzodiazepin-3-yl]-N'-phenylurea hydrochloride]
pKi CCK-A (CCK-A receptor): 5.04 | pKi CCK-B (CCK-B receptor; CCK-B receptor, guinea pig cortex assay): 8.18

CCN(CC)CCN1C(=O)C(NC(=O)Nc2ccccc2)C(=O)N(CC2CCCCC2)c2ccccc21 (stereo not shown) [Example 13, N-[1-(Cyclohexylmethyl)-2,4-dioxo-5-[(2-diethylamino)ethyl]-2,3,4,5-tetrahydro-1H-1,5-benzodiazepin-3-yl]-N'-phenylurea]
pKi CCK-A (CCK-A receptor): 5.82 | Ki (CCK-B receptor; [1]): 1.02 nM

O=C(Nc1ccccc1)NC1C(=O)N(CCN2CCOCC2)c2cc(F)ccc2N(CC23CC4CC(CC(C4)C2)C3)C1=O (stereo not shown) [Example 14, N-[1-(1-Adamantylmethyl)-2,4-dioxo-7-fluoro-5-[2-(4-morpholino)ethyl]-2,3,4,5-tetrahydro-1H-1,5-benzodiazepin-3-yl]-N'-phenylurea]
pKi CCK-A (CCK-A receptor): 5.88 | Ki (CCK-B receptor; [1]): 4.37 nM

CC(C)CCN1C(=O)C(NC(=O)Nc2ccc(Cl)cc2)C(=O)N(CCN2CCOCC2)c2ccccc21 (stereo not shown) [Example 15, N-[1-(3-methyl-1-butyl)-2,4-dioxo-5-[2-(4-morpholino)ethyl]-2,3,4,5-tetrahydro-1H-benzodiazepin-3-yl]-N'-(4-chlorophenyl)urea]
pKi CCK-A (CCK-A receptor): 5.99 | Ki (CCK-B receptor; [1]): 1.95 nM

CC(C)CCN1C(=O)C(NC(=O)Nc2ccc(C(F)(F)F)cc2)C(=O)N(CCN2CCOCC2)c2ccccc21 (stereo not shown) [Example 16, N-[2,4-Dioxo-1-(3-methyl-1-butyl)-5-[2-(4-morpholino)ethyl]-2,3,4,5-tetrahydro-1H-1,5-benzodiazepin-3-yl]-N'-(4-trifluoromethyl)phenylurea]
pKi CCK-A (CCK-A receptor): 5.83 | Ki (CCK-B receptor; [1]): 3.63 nM

Cc1cccc(NC(=O)NC2C(=O)N(CCN3CCCCCC3)c3ccccc3N(c3ccccc3)C2=O)c1 (stereo not shown) [Example 17, N-[2,4-Dioxo-1-[2-(hexamethyleneimino)ethyl]-5-phenyl-2,3,4,5-tetrahydro-1H-benzodiazepin-3-yl]-N'-(3-tolyl)urea]
pKi CCK-A (CCK-A receptor): 5.08 | Ki (CCK-B receptor): 2 nM
